Data on three compounds can be found in patent US6737383B1, “Herbicidal oxadiazolidines” (priority 1999, dated 2004).

One assay concerns smallflower flatsedge. The assay can be described thus: Test B flood test smallflower flatsedge. The following applies: for Plant response rating, S. Flatsedge (0 to 10 scale, 0 is no effect, 10 is complete control): Rate 62 g/ha; for Plant response rating, S. Flatsedge (0 to 10 scale, 0 is no effect, 10 is complete control) / S. Flatsedge plant response rating (0 to 10 scale, 0 is no effect, 10 is complete control): visual evaluation after twelve to sixteen days; for S. Flatsedge plant response rating (0 to 10 scale, 0 is no effect, 10 is complete control): Rate 125 g/ha, under heading Pre-emergence. Type of assay: in vivo, Cyperus difformis. The gist of the method: (§1)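 Read-out is a visual response score from 0 (no effect) to 10 (complete control), assigned by comparison with untreated controls. Treatment was applied at the 2-leaf stage, and plants stayed in the greenhouse for twelve to sixteen days before scoring.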

In a further assay the test system is wheat. The assay can be described thus: Test B pre/postemergence wheat. Type of assay: in vivo, Triticum aestivum. The procedure, abridged: (§2)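 Herbicidal effect was estimated by eye on a ten-point control scale after plants spent twelve to sixteen days in a greenhouse following soil or foliar treatment. Foliar sprays targeted plants at one to four leaves; all doses were formulated in a non-phytotoxic solvent with surfactant.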

In a further assay the test system is bedstraw. Put plainly: Test B pre/postemergence bedstraw. Type of assay: in vivo, Galium aparine. The procedure, abridged: as §2
The test system of the next assay is bamyardgrass. The assay can be described thus: Test B flood test barnyardgrass. Type of assay: in vivo, Echinochloa crus-galli. Conditions: for Plant response rating, Barnyardgrass (0 to 10 scale, 0 is no effect, 10 is complete control): Rate 62 g/ha; for Plant response rating, Barnyardgrass (0 to 10 scale, 0 is no effect, 10 is complete control) / Barnyardgrass plant response rating (0 to 10 scale, 0 is no effect, 10 is complete control): visual evaluation after twelve to sixteen days; for Barnyardgrass plant response rating (0 to 10 scale, 0 is no effect, 10 is complete control): Rate 125 g/ha, under heading Pre-emergence. The procedure, abridged: as §1

Where [1] appears, read: flood test species, Pre-emergence.
The mark [2] stands for this setting: Rate 250 g/ha, Pre-emergence (flood test species), scale 0 to 10, 0 is no effect, 10 is complete control.
The mark [3] stands for this setting: Rate 500 g/ha, Pre-emergence section of Table B, 0 to 10 scale (0 no effect, 10 complete control).
The mark [4] stands for this setting: Preemergence, Rate 62 g/ha, scale of 0 to 10 where 0 is no effect and 10 is complete control.
The mark [5] stands for this setting: Preemergence, Rate 125 g/ha, scale of 0 to 10 where 0 is no effect and 10 is complete control.
Where [6] appears, read: Preemergence, Rate 250 g/ha, scale 0 to 10 (0 no effect, 10 complete control).
Where [7] appears, read: Preemergence, Rate 500 g/ha, scale of 0 to 10 where 0 is no effect and 10 is complete control.
Where [8] appears, read: Rate 500 g/ha, Pre-emergence, flood test species, scale 0 to 10 (0 no effect, 10 complete control).
Where [9] appears, read: Preemergence, Rate 500 g/ha, scale 0 to 10, 0 is no effect, 10 is complete control.
Where [10] appears, read: Rate 125 g/ha, Postemergence, scale 0 to 10, 0 is no effect, 10 is complete control.
Setting [11] is: Preemergence, Rate 125 g/ha, scale 0 to 10, 0 is no effect, 10 is complete control.

On to `C#CC=CC(C)(C)n1c(=O)on(C(=O)N(c2ccccc2)C(C)C)c1=O` [Compound 655], for which, in the assay with smallflower flatsedge (setting [1]), the “Plant response rating, S. Flatsedge (0 to 10 scale, 0 is no effect, 10 is complete control)” value was 0. In the assay with smallflower flatsedge (flood test species), the “S. Flatsedge plant response rating (0 to 10 scale, 0 is no effect, 10 is complete control)” value came out at 0. The “S. Flatsedge plant response rating” value in the assay on smallflower flatsedge (setting [2]) and in the assay with smallflower flatsedge (setting [3]) was 0 in each case. Also, the “Plant response rating, Wheat” value was found to be 0 with wheat (Postemergence, Rate 62 g/ha, scale 0 to 10, 0 is no effect, 10 is complete control); 0 in the assay on wheat (setting [6]); 0 with wheat (setting [7]). Further, the “Wheat plant response rating” value in the assay with wheat (Postemergence, Rate 125 g/ha, scale of 0 to 10 where 0 is no effect and 10 is complete control) is 0; with wheat (setting [4]), 0; with wheat (setting [5]), 0; in the assay with wheat (Rate 500 g/ha, Postemergence, scale 0 to 10, 0 is no effect, 10 is complete control), 0. Moreover, the “Bedstraw plant response rating” value in the assay with bedstraw (setting [4]) and with bedstraw (setting [5]) was 0 in each case. Moreover, the “Plant response rating, Bedstraw” value in the assay on bedstraw (setting [6]) and in the assay on bedstraw (setting [7]) was 0 each time. Besides, the “Plant response rating, Barnyardgrass (0 to 10 scale, 0 is no effect, 10 is complete control)” value with bamyardgrass (setting [1]) is reported as 0. Further, the “Barnyardgrass plant response rating (0 to 10 scale, 0 is no effect, 10 is complete control)” value with bamyardgrass (flood test species) came out at 0. In addition, the “Barnyardgrass plant response rating” value with bamyardgrass (setting [2]) and with bamyardgrass (setting [3]) was 0 each time.

On to `CC(C)N(C(=O)n1oc(=O)n(CC(=O)N(C)C)c1=O)c1ccc(Cl)cc1` [Compound 477], for which, in the assay on smallflower flatsedge (setting [1]), the “Plant response rating, S. Flatsedge (0 to 10 scale, 0 is no effect, 10 is complete control)” value came to 0. Besides, the “S. Flatsedge plant response rating (0 to 10 scale, 0 is no effect, 10 is complete control)” value in the assay on smallflower flatsedge (flood test species) is reported as 0. In addition, the “S. Flatsedge plant response rating” value in the assay on smallflower flatsedge (setting [2]) and in the assay on smallflower flatsedge (setting [8]) was 0 throughout. Also, the “Wheat plant response rating” value with wheat (Postemergence, Rate 250 g/ha, scale 0 to 10) was 0; with wheat (Preemergence, Rate 250 g/ha, scale 0 to 10, 0 is no effect, 10 is complete control), 0; in the assay on wheat (setting [9]) it was 0; in the assay with wheat (Rate 62 g/ha, Postemergence, scale 0 to 10 (0 no effect, 10 complete control)) it was 0; in the assay on wheat (setting [10]) it was 0. Also, the “Plant response rating, Wheat” value in the assay with wheat (setting [4]) and in the assay on wheat (setting [5]) was 0 in each case. In addition, the “Plant response rating, Bedstraw” value in the assay on bedstraw (setting [4]) is given as 0. Further, the “Bedstraw plant response rating” value in the assay with bedstraw (setting [9]) is listed as 3; with bedstraw (setting [10]), 0. The “Plant response rating, Barnyardgrass (0 to 10 scale, 0 is no effect, 10 is complete control)” value in the assay with bamyardgrass (setting [1]) came out at 0. Also, the “Barnyardgrass plant response rating (0 to 10 scale, 0 is no effect, 10 is complete control)” value in the assay on bamyardgrass (flood test species) was 0. Besides, the “Barnyardgrass plant response rating” value with bamyardgrass (setting [2]) and in the assay with bamyardgrass (setting [8]) was 0 throughout.

Turning to `CC(C)N(C(=O)n1oc(=O)n(CC2CCC2)c1=O)c1ccc(F)cc1F` [Compound 521], the “Plant response rating, S. Flatsedge (0 to 10 scale, 0 is no effect, 10 is complete control)” value in the assay on smallflower flatsedge (setting [1]) was found to be 0. The “S. Flatsedge plant response rating (0 to 10 scale, 0 is no effect, 10 is complete control)” value with smallflower flatsedge (flood test species) amounted to 0. The “S. Flatsedge plant response rating” value in the assay with smallflower flatsedge (setting [2]) and in the assay with smallflower flatsedge (setting [3]) was 0 in each case. Moreover, the “Wheat plant response rating” value with wheat (Postemergence, Rate 62 g/ha, scale of 0 to 10, 0 is no effect, 10 is complete control) was 0; in the assay with wheat (Postemergence, Rate 125 g/ha, scale 0 to 10, 0 is no effect, 10 is complete control) it was 0; in the assay with wheat (setting [11]), 0; in the assay with wheat (setting [7]), 0. The “Plant response rating, Wheat” value in the assay on wheat (Postemergence, Rate 500 g/ha, scale 0 to 10, 0 is no effect, 10 is complete control) was determined as 2; in the assay with wheat (setting [4]), 0; in the assay with wheat (Rate 250 g/ha, Postemergence, scale of 0 to 10 where 0 is no effect and 10 is complete control), 0. In addition, the “Wheat plant response rating (0 to 10 scale)” value in the assay on wheat (Preemergence, Rate 250 g/ha) amounted to 0. Also, in the assay with bedstraw (setting [4]), the “Plant response rating, Bedstraw” value is given as 0. For the same compound, the “Bedstraw plant response rating” value in the assay on bedstraw (setting [11]) and with bedstraw (setting [9]) was 0 throughout. The “Bedstraw plant response rating (0 to 10 scale)” value in the assay on bedstraw (Preemergence, Rate 250 g/ha) is listed as 0. In addition, the “Plant response rating, Barnyardgrass (0 to 10 scale, 0 is no effect, 10 is complete control)” value in the assay with bamyardgrass (setting [1]) stood at 0. The “Barnyardgrass plant response rating (0 to 10 scale, 0 is no effect, 10 is complete control)” value in the assay on bamyardgrass (flood test species) came out at 0. The “Barnyardgrass plant response rating” value in the assay with bamyardgrass (setting [2]) and in the assay on bamyardgrass (setting [3]) was 0 in each case.
